Results taken from PubChem BioAssay (NCI).
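Results reflect a 48-hour exposure of cells in 96-well plates to compound at five concentrations. GI50 marks 50% less growth. The concentration for full growth arrest is given as TGI.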

Tests used:
Test in all cases: inhibition of tumour cell growth, NCI panel, 48 h; in the data active = GI50 below about 0.43 µM; inactive = the rest
[1] = test system: MDA-MB-435
[2] = test system: U251 CNS
[3] = test system: TK-10 renal
[4] = test system: CAKI-1 renal
[5] = test system: T-47D breast
[6] = test system: OVCAR-3 ovarian
[7] = test system: HOP-62 NSCLC
[8] = test system: SF-268 CNS
[9] = test system: OVCAR-5 ovarian
[10] = test system: MOLT-4 leukemia
[11] = test system: SNB-75 CNS
[12] = test system: BT-549 breast
[13] = test system: DU-145 prostate
[14] = test system: NCI-H460 lung
[15] = test system: HL-60(TB) leukemia
[16] = test system: RXF 393 renal
[17] = test system: LOX IMVI melanoma
[18] = test system: SK-MEL-2 melanoma
[19] = test system: UACC-257 melanoma
[20] = test system: NCI-H226 lung
[21] = test system: HT29 colon
[22] = test system: A498 renal
[23] = test system: IGROV1 ovarian
[24] = test system: PC-3 prostate
[25] = test system: ACHN renal
[26] = test system: SK-MEL-5 melanoma
[27] = test system: HCT-15 colon
[28] = test system: M14 melanoma
[29] = test system: K-562 leukemia
[30] = test system: A549 NSCLC
[31] = test system: OVCAR-8 ovarian
[32] = test system: SW-620 colon
[33] = test system: NCI-H522 lung
[34] = test system: HCT-116 colon
[35] = test system: SN12C renal
[36] = test system: SF-539 CNS
[37] = test system: RPMI-8226 leukemia
[38] = test system: MALME-3M melanoma
[39] = test system: MCF7 breast
[40] = test system: UACC-62 melanoma
[41] = test system: SK-OV-3 ovarian
[42] = test system: MDA-MB-231 breast
[43] = test system: SK-MEL-28 melanoma
[44] = test system: NCI-H23 lung
[45] = test system: CCRF-CEM leukemia
[46] = test system: 786-0 renal
[47] = test system: NCI/ADR-RES ovarian
[48] = test system: UO-31 renal
[49] = test system: HCC-2998 colon
[50] = test system: OVCAR-4 ovarian
[51] = test system: HS 578T breast
[52] = test system: HOP-92 NSCLC
[53] = test system: SNB-19 CNS
[54] = test system: COLO 205 colon
[55] = test system: KM12 colon
[56] = test system: EKVX NSCLC
[57] = test system: SF-295 CNS

O=c1c2ccc3cccc4c(=O)c5ccc6cccc1c6c5-c2c34
inactive: GI50 [1] > 50 µM | GI50 [2] > 50 µM | GI50 [3] > 50 µM | GI50 [4] > 50 µM | GI50 [5] > 50 µM | GI50 [6] > 50 µM | GI50 [7] > 50 µM | GI50 [8] > 50 µM | GI50 [9] > 50 µM | GI50 [10] > 50 µM | GI50 [11] > 50 µM | GI50 [12] > 50 µM | GI50 [13] > 50 µM | GI50 [14] > 50 µM | GI50 [15] > 50 µM | GI50 [16] > 50000 nM | GI50 [17] > 50 µM | GI50 [18] > 50 µM | GI50 [19] > 50 µM | GI50 [20] > 50 µM | GI50 [21] > 50 µM | GI50 [22] > 50 µM | GI50 [23] > 50 µM | GI50 [24] > 50 µM | GI50 [25] > 50 µM | GI50 [26] > 50 µM | GI50 [27] > 50 µM | GI50 [28] > 50 µM | GI50 [29] > 50 µM | GI50 [30] > 50 µM | GI50 [31] > 50 µM | GI50 [32] > 50 µM | GI50 [33] > 50 µM | GI50 [34] > 50 µM | GI50 [35] > 50 µM | GI50 [36] > 50 µM | GI50 [37] > 50 µM | GI50 [38] > 50 µM | GI50 [39] > 50 µM | GI50 [40] > 50 µM | GI50 [41] > 50 µM | GI50 [42] > 50 µM | GI50 [43] > 50 µM | GI50 [44] > 50 µM | GI50 [45] > 50 µM | GI50 [46] > 50 µM | GI50 [47] > 50 µM | GI50 [48] > 50 µM | GI50 [49] > 50 µM | GI50 [50] > 50 µM | GI50 [51] > 50 µM | GI50 [52] > 50 µM | GI50 [53] > 50 µM | GI50 [54] > 50 µM | GI50 [55] > 50 µM
> 50 µM: TGI [1] | TGI [2] | TGI [3] | TGI [4] | TGI [5] | TGI [6] | TGI [7] | TGI [8] | TGI [9] | TGI [10] | TGI [11] | TGI [12] | TGI [13] | TGI [14] | TGI [15] | TGI [16] | TGI [17] | TGI [18] | TGI [19] | TGI [20] | TGI [21] | TGI [22] | TGI [23] | TGI [24] | TGI [25] | TGI [26] | TGI [27] | TGI [28] | TGI [29] | TGI [30] | TGI [31] | TGI [32] | TGI [33] | TGI [34] | TGI [35] | TGI [36] | TGI [37] | TGI [38] | TGI [39] | TGI [40] | TGI [41] | TGI [42] | TGI [43] | TGI [44] | TGI [45] | TGI [46] | TGI [47] | TGI [48] | TGI [49] | TGI [50] | TGI [51] | TGI [52] | TGI [53] | TGI [54] | TGI [55]

O=C(O)CNC(=O)C(CS)Cc1ccccc1 (centres undefined)
> 25 µM: TGI [1] | TGI [2] | TGI [3] | TGI [4] | TGI [5] | TGI [6] | TGI [7] | TGI [8] | TGI [9] | TGI [56] | TGI [11] | TGI [12] | TGI [13] | TGI [14] | TGI [57] | TGI [16] | TGI [17] | TGI [18] | TGI [19] | TGI [20] | TGI [21] | TGI [22] | TGI [23] | TGI [24] | TGI [25] | TGI [26] | TGI [27] | TGI [28] | TGI [29] | TGI [30] | TGI [31] | TGI [32] | TGI [33] | TGI [34] | TGI [35] | TGI [36] | TGI [38] | TGI [39] | TGI [40] | TGI [41] | TGI [42] | TGI [43] | TGI [44] | TGI [46] | TGI [47] | TGI [48] | TGI [49] | TGI [50] | TGI [51] | TGI [53] | TGI [54] | TGI [55]
inactive: GI50 [1] > 25 µM | GI50 [2] > 25 µM | GI50 [3] > 25 µM | GI50 [4] > 25 µM | GI50 [5] > 25 µM | GI50 [6] > 25 µM | GI50 [7] > 25 µM | GI50 [8] > 25 µM | GI50 [9] > 25 µM | GI50 [56] > 25 µM | GI50 [11] > 25 µM | GI50 [12] > 25 µM | GI50 [13] > 25 µM | GI50 [14] > 25 µM | GI50 [57] > 25 µM | GI50 [16] 790 nM | GI50 [17] > 25 µM | GI50 [18] > 25 µM | GI50 [19] > 25 µM | GI50 [20] > 25 µM | GI50 [21] > 25 µM | GI50 [22] > 25 µM | GI50 [23] > 25 µM | GI50 [24] > 25 µM | GI50 [25] > 25 µM | GI50 [26] > 25 µM | GI50 [27] > 25 µM | GI50 [28] > 25 µM | GI50 [29] > 25 µM | GI50 [30] > 25 µM | GI50 [31] > 25 µM | GI50 [32] > 25 µM | GI50 [33] > 25 µM | GI50 [34] > 25 µM | GI50 [35] > 25 µM | GI50 [36] > 25 µM | GI50 [38] > 25 µM | GI50 [39] > 25 µM | GI50 [40] > 25 µM | GI50 [41] > 25 µM | GI50 [42] > 25 µM | GI50 [43] > 25 µM | GI50 [44] > 25 µM | GI50 [46] > 25 µM | GI50 [47] > 25 µM | GI50 [48] > 25 µM | GI50 [49] > 25 µM | GI50 [50] > 25 µM | GI50 [51] > 25 µM | GI50 [53] > 25 µM | GI50 [54] > 25 µM | GI50 [55] > 25 µM
